In US20250325565A1, “ERAVACYCLINE FOR TREATING CANCER” (B. G. NEGEV TECHNOLOGIES AND APPLICATIONS LTD., priority 2022, published 2025):

Test system: AsPC-1 cells
Experiment: XTT cell proliferation assay, AsPC-1
Format: cell-based, human
Details: for decrease in cell growth: 72 h
Description: Human PDAC (AsPC-1, BxPC-3, Panc-1 scr, Panc-1 p53-R273H knock-out (KO) hTERT-HPNE), breast (MCF-7), lung (A549), and colon (HT-29) cancer cell lines were purchased from the American Type Culture Collection (ATCC). The MCF-7, A549, Panc-1 scr, Panc-1 p53 KO and HT-29 cell lines were grown in Dulbecco's Modified Eagle Medium (DMEM; Biological Industries, Beit HaEmek (BI), Israel), and the BxPC-3 and AsPC-1 cell lines were cultured in Roswell Park Memorial Institute-1640 (RPMI-1640; BI, Israel) medium. All media was supplemented with 10% fetal bovine serum (FBS), 200 μM L-glutamine (BI), and 1% penicillin-streptomycin (BI). Cells were cultured at 37° C. in a 5% CO2 humidified incubator.
Eravacycline dihydrochloride (MedChem Express (MCE)) was dissolved in […] (DDW). Tigecycline (MCE) and omadacycline (MCE) were dissolved in dimethyl sulphoxide (DMSO). All drugs were prepared as 100 mM stock solutions. All cell lines were treated with DMSO as a control (less than 0.1%) or tigecycline, omadacycline, or eravacycline (at the indicated concentrations) for 72 hours. Cell viability and proliferation were determined using the XTT Cell Proliferation Assay Kit (Promega).
The XTT Cell Proliferation Assay Kit was used to determine cell viability and proliferation. Cells were seeded in 96-well plates at a density of 4,000 cells per well and allowed to attach overnight in a 5% CO2 incubator at 37° C. After overnight incubation, cells were treated with culture medium or in a medium containing tigecycline, omadacycline, or eravacycline at different concentrations (1, 2, 5, 10, 25, and 50 μM) for the indicated time period. Then, 50 μl XTT reaction solution (0.1 ml activation solution+5 ml XTT reagent solution) was added to each well, and the plate was incubated at 37° C. for two hours. After shaking the plate gently to distribute the dye in the wells, the absorbance was measured with a spectrophotometer (Bio-RadiMark Microplate Absorbance reader) at a wavelength of 450 nm and a reference wavelength of 655 nm.
To evaluate the half maximal inhibitory concentration (IC50) of tetracycline derivatives on five different cell lines (MCF-7, A549, HT-29, BxPC-3, and AsPC-1), the cells were seeded and allowed to attach overnight. All cells were washed with phosphate buffered saline (PBS) and then cultured in fresh media containing the drugs tigecycline, omadacycline, or eravacycline at an increasing concentration (0-50 μM) for 72 h. Inhibition of cell proliferation was determined using the XTT Cell Proliferation Assay Kit.
To investigate the effect of tetracycline derivatives on cell proliferation in human breast, lung, colon, and PDAC cells, the inventors treated all cell lines (MCF-7, A549, HT-29, BxPC-3, and AsPC-1) with different concentrations of tigecycline, omadacycline, and eravacycline (1, 2, 5, 10, 25, and 50 μM), with medium used as a control, for 72 h. Then, an XTT assay was performed to determine the growth inhibition rate.

IC50 (Homo sapiens, ASPC1, AsPC-1, 72 h, XTT, read-out: IC50, inhibition of cell proliferation): 7.07 µM
SMILES: CN(C)[C@@H]1C(O)=C(C(N)=O)C(=O)[C@@]2(O)C(O)=C3C(=O)c4c(O)c(NC(=O)CN5CCCC5)cc(F)c4C[C@H]3C[C@@H]12 [eravacycline, (4S,4aS,5aR,12aS)-4-(Dimethylamino)-7-fluoro-3,10,12,12a-tetrahydroxy-1,11-dioxo-9-[2-(pyrrolidin-1-yl)acetamido]-1,4,4a,5,5a,6,11,12a-octahydrotetracene-2-carboxamide]
decrease in cell growth (AsPC-1, 25 μM): 75%
decrease in cell growth (AsPC-1, 50 μM): 89%
suppression of proliferation, up to (AsPC-1, 72 h, concentration-dependent, 1-50 μM): 90-93%
